According to PMC13210772, “Dual FLT3/MAPK14 Proteolysis-Targeting Chimera (PROTAC) Induces Potent Acute Myeloid Leukemia Cell Death” (Pharmaceuticals, 2026):

Experiments:
MAP4K3 = target: T1, MAP4K3 (Homo sapiens, UniProt Q8IVH8); assay: NanoBRET CELLinib128; format: binding; conditions: 1 µM; 100% no effect, 0% complete tracer displacement
T1 construct: Full-length kinase ORF (Promega, Madison, WI, USA) cloned in frame with a NanoLuc-vector was transfected into HEK293T cells; host or cells: HEK293T
Method: (§1) To get an impression about the binding strength of the PROTAC MA191 and the reference inhibitor MA68 to other kinases besides FLT3-ITD the binding on a kinase panel of further 128 representative protein kinases at 1 μM concentration was tested using the NanoBRET^TM cellular target engagement assay (CELLinib128 assay, CELLinib GmbH, Frankfurt, Germany). […] In none of the 128 kinases MA191 was able to displace the tracer (inhibitor) used by more than 50%, Table S1, Supplementary Information).
(§2) The CELLinib128 assay was performed by CELLinib GmbH, Frankfurt (Germany) as described previously. In brief: Full-length kinase ORF (Promega, Madison, WI, USA) cloned in frame with a NanoLuc-vector was transfected into HEK293T cells in Opti-MEM without phenol red (Life Technologies, Carlsbad, CA, USA) at a density of 2 × 10^5 cells/mL using FuGENE HD (Promega, E2312) and proteins were allowed to express for 20 h. For CDKs, where indicated below, an excess of an activator without an NLuc-fusion was cotransfected. […] The system was allowed to equilibrate at 37 °C for 2 h and 5% CO2 prior to BRET measurements. For PKCs, a chemical activator PMA was added in a final concentration of 1 µM was added together with test compounds and tracers (Promega, V1171). To measure BRET, NanoBRET^TM NanoGlo substrate + extracellular NanoLuc inhibitor (Promega, N2160) were added as per the manufacturer’s protocol, and filtered luminescence was measured (450 nm BP filter (donor) and 610 nm LP filter (acceptor)). For the 1-shot test compounds, data were normalized to the tracer control and the background control or control compound plateau and an average and SD were calculated. […] For the control compounds competitive displacement data were normalized to the tracer Ctrl and the background Ctrl and then plotted and fitted using GraphPad Prism 10 software using a normalized 3-parameter curve fit with the following equation: Y = 100/(1 + 10^X−LogIC50).

JAK3 = target: T2, JAK3 (Homo sapiens, UniProt P52333); assay: NanoBRET CELLinib128; format: binding; conditions: 100% no effect, 0% complete tracer displacement, read-out: Tracer bound
T2 construct: Full-length kinase ORF (Promega, Madison, WI, USA) cloned in frame with a NanoLuc-vector was transfected into HEK293T cells; host or cells: HEK293T
T2 sequence (P52333 whole entry): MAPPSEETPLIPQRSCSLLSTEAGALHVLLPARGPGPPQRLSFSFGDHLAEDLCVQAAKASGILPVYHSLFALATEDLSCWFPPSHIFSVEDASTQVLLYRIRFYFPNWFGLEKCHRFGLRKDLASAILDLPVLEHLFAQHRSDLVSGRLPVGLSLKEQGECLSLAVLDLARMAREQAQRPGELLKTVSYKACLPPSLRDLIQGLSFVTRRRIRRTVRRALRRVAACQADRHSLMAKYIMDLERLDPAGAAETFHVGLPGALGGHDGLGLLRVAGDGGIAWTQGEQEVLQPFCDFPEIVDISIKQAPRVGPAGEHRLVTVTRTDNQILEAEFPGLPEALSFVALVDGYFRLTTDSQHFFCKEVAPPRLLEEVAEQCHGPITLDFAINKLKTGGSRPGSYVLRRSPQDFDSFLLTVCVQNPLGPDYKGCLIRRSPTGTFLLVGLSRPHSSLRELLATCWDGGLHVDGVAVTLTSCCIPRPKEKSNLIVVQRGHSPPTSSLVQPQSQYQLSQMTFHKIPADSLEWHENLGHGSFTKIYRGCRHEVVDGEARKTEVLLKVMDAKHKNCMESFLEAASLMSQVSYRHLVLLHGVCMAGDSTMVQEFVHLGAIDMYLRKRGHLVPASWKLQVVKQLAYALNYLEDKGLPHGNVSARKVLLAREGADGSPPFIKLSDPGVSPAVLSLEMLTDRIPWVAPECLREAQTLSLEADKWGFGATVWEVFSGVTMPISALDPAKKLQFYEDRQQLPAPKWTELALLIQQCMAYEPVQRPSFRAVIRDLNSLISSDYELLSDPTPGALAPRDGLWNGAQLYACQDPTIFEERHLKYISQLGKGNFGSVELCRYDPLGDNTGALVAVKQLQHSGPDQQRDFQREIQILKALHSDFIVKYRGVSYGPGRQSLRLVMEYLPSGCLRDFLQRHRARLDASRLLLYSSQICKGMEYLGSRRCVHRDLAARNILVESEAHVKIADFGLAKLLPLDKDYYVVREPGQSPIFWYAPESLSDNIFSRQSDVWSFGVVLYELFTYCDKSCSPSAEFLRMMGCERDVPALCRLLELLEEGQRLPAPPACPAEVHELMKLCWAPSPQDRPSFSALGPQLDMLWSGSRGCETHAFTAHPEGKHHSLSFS
Method: as §1, §2

NEK3 = target: T3, NEK3 (Homo sapiens, UniProt P51956); assay: NanoBRET CELLinib128; format: binding; conditions: 100% no effect, 0% complete tracer displacement, read-out: Tracer bound
T3 construct: Full-length kinase ORF (Promega, Madison, WI, USA) cloned in frame with a NanoLuc-vector was transfected into HEK293T cells; host or cells: HEK293T
Method: as §1, §2

TEK = target: T4, TEK (Homo sapiens, UniProt Q02763); assay: NanoBRET CELLinib128; format: binding; conditions: 100% no effect, 0% complete tracer displacement, read-out: Tracer bound
T4 construct: Full-length kinase ORF (Promega, Madison, WI, USA) cloned in frame with a NanoLuc-vector was transfected into HEK293T cells; host or cells: HEK293T
Method: as §1, §2

STK36 = target: T5, STK36 (Homo sapiens, UniProt Q9NRP7); assay: NanoBRET CELLinib128; format: binding; conditions: 100% no effect, 0% complete tracer displacement, read-out: Tracer bound
T5 construct: Full-length kinase ORF (Promega, Madison, WI, USA) cloned in frame with a NanoLuc-vector was transfected into HEK293T cells; host or cells: HEK293T
Method: as §1, §2

JAK2 = target: T6, JAK2 (Homo sapiens, UniProt O60674); assay: NanoBRET CELLinib128; format: binding; conditions: 1 µM; 100% no effect, 0% complete tracer displacement
T6 construct: Full-length kinase ORF (Promega, Madison, WI, USA) cloned in frame with a NanoLuc-vector was transfected into HEK293T cells; host or cells: HEK293T
Method: as §1, §2

STK3 = target: T7, STK3 (Homo sapiens, UniProt Q13188); assay: NanoBRET CELLinib128; format: binding; conditions: 100% no effect, 0% complete tracer displacement, read-out: Tracer bound
T7 construct: Full-length kinase ORF (Promega, Madison, WI, USA) cloned in frame with a NanoLuc-vector was transfected into HEK293T cells; host or cells: HEK293T
Method: as §1, §2

STK35 = target: T8, STK35 (Homo sapiens, UniProt Q8TDR2); assay: NanoBRET CELLinib128; format: binding; conditions: 100% no effect, 0% complete tracer displacement, read-out: Tracer bound
T8 construct: Full-length kinase ORF (Promega, Madison, WI, USA) cloned in frame with a NanoLuc-vector was transfected into HEK293T cells; host or cells: HEK293T
T8 sequence (Q8TDR2 whole entry): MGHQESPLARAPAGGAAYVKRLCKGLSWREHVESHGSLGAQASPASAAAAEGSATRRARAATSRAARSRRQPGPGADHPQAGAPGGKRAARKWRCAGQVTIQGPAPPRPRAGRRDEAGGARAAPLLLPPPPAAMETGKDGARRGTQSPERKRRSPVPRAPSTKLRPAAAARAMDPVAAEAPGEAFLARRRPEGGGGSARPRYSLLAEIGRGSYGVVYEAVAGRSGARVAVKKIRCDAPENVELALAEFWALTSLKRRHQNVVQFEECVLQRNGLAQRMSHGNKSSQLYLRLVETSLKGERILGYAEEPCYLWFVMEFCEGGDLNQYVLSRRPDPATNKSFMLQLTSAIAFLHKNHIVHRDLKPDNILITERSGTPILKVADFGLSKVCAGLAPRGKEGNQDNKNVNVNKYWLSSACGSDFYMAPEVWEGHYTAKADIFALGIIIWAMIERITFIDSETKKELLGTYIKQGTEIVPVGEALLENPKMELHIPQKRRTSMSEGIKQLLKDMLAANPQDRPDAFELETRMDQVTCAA
Method: as §1, §2

CSNK2A2 = target: T9, CSNK2A2 (Homo sapiens, UniProt P19784); assay: NanoBRET CELLinib128; format: binding; conditions: 100% no effect, 0% complete tracer displacement, read-out: Tracer bound
T9 construct: Full-length kinase ORF (Promega, Madison, WI, USA) cloned in frame with a NanoLuc-vector was transfected into HEK293T cells; host or cells: HEK293T
Method: as §1, §2

RIOK2 = target: T10, RIOK2 (Homo sapiens, UniProt Q9BVS4); assay: NanoBRET CELLinib128; format: binding; conditions: 100% no effect, 0% complete tracer displacement, read-out: Tracer bound
T10 construct: Full-length kinase ORF (Promega, Madison, WI, USA) cloned in frame with a NanoLuc-vector was transfected into HEK293T cells; host or cells: HEK293T
Method: as §1, §2

MAP4K1 = target: T11, MAP4K1 (Homo sapiens, UniProt Q92918); assay: NanoBRET CELLinib128; format: binding; conditions: 100% no effect, 0% complete tracer displacement, read-out: Tracer bound
T11 construct: Full-length kinase ORF (Promega, Madison, WI, USA) cloned in frame with a NanoLuc-vector was transfected into HEK293T cells; host or cells: HEK293T
Method: as §1, §2

ERN2 = target: T12, ERN2 (Homo sapiens, UniProt Q76MJ5); assay: NanoBRET CELLinib128; format: binding; conditions: 100% no effect, 0% complete tracer displacement, read-out: Tracer bound
T12 construct: Full-length kinase ORF (Promega, Madison, WI, USA) cloned in frame with a NanoLuc-vector was transfected into HEK293T cells; host or cells: HEK293T
T12 sequence (Q76MJ5 35-926): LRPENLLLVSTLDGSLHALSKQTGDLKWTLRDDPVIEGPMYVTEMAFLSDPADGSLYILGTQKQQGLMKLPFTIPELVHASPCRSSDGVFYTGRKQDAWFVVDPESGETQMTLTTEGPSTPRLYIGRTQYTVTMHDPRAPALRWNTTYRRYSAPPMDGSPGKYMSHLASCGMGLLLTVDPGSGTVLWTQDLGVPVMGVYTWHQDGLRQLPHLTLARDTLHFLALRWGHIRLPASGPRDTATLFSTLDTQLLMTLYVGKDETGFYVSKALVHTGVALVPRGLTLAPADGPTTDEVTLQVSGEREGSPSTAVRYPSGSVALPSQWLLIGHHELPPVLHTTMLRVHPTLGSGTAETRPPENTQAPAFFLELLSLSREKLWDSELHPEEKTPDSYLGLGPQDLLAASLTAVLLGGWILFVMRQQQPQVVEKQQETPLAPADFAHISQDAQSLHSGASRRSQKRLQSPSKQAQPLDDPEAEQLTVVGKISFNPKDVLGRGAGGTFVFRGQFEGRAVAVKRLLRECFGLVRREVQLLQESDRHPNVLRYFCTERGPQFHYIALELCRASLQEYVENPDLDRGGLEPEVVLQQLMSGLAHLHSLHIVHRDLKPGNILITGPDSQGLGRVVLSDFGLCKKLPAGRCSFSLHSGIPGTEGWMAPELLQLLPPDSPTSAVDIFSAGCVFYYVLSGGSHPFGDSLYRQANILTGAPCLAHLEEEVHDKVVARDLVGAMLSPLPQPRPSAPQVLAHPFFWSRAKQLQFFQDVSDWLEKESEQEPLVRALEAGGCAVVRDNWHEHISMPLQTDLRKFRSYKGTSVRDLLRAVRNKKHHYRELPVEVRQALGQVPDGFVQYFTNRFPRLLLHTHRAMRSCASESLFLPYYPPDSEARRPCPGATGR
Method: as §1, §2

TNK1 = target: T13, TNK1 (Homo sapiens, UniProt Q13470); assay: NanoBRET CELLinib128; format: binding; conditions: 100% no effect, 0% complete tracer displacement, read-out: Tracer bound
T13 construct: Full-length kinase ORF (Promega, Madison, WI, USA) cloned in frame with a NanoLuc-vector; host or cells: HEK293T
Method: as §1, §2

SNRK = target: T14, SNRK (Homo sapiens, UniProt Q9NRH2); assay: NanoBRET CELLinib128; format: binding; conditions: 100% no effect, 0% complete tracer displacement, read-out: Tracer bound
T14 construct: Full-length kinase ORF (Promega, Madison, WI, USA) cloned in frame with a NanoLuc-vector was transfected into HEK293T cells; host or cells: HEK293T
Method: as §1, §2

SIK3 = target: T15, SIK3 (Homo sapiens, UniProt Q9Y2K2); assay: NanoBRET CELLinib128; format: binding; conditions: 1 µM; 100% no effect, 0% complete tracer displacement
T15 construct: Full-length kinase ORF (Promega, Madison, WI, USA) cloned in frame with a NanoLuc-vector was transfected into HEK293T cells; host or cells: HEK293T
Method: as §1, §2

MAP3K11 = target: T16, MAP3K11 (Homo sapiens, UniProt Q16584); assay: NanoBRET CELLinib128; format: binding; conditions: 1 µM; 100% no effect, 0% complete tracer displacement
T16 construct: Full-length kinase ORF (Promega, Madison, WI, USA) cloned in frame with a NanoLuc-vector was transfected into HEK293T cells; host or cells: HEK293T
T16 sequence (Q16584 whole entry): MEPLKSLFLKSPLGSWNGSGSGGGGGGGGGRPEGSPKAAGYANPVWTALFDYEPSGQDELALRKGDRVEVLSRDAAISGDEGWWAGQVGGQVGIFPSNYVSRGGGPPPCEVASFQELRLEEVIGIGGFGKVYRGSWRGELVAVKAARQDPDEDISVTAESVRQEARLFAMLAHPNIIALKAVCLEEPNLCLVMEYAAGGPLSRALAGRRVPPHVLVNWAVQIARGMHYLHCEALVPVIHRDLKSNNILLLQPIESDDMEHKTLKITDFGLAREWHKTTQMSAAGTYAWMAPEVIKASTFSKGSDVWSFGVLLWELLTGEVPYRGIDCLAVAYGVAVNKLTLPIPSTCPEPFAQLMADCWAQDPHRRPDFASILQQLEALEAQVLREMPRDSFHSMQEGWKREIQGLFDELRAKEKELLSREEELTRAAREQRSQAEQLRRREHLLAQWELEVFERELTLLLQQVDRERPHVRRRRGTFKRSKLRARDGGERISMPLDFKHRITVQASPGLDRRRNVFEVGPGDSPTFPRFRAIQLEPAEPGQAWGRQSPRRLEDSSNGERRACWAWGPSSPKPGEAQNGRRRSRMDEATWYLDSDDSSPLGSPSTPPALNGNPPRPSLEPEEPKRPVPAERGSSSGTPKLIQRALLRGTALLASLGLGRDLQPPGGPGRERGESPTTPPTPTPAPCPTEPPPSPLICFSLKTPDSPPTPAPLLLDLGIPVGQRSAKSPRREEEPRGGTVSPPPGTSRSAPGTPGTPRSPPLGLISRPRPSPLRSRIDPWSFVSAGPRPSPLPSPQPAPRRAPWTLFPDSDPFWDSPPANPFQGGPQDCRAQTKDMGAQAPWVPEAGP
Method: as §1, §2

NEK9 = target: T17, NEK9 (Homo sapiens, UniProt Q8TD19); assay: NanoBRET CELLinib128; format: binding; conditions: 100% no effect, 0% complete tracer displacement, read-out: Tracer bound
T17 construct: Full-length kinase ORF (Promega, Madison, WI, USA) cloned in frame with a NanoLuc-vector was transfected into HEK293T cells; host or cells: HEK293T
Method: as §1, §2

PRKAA2 = target: T18, PRKAA2 (Homo sapiens, UniProt P54646); assay: NanoBRET CELLinib128; format: binding; conditions: 100% no effect, 0% complete tracer displacement, read-out: Tracer bound
T18 construct: Full-length kinase ORF (Promega, Madison, WI, USA) cloned in frame with a NanoLuc-vector was transfected into HEK293T cells; host or cells: HEK293T
T18 sequence (P54646 whole entry): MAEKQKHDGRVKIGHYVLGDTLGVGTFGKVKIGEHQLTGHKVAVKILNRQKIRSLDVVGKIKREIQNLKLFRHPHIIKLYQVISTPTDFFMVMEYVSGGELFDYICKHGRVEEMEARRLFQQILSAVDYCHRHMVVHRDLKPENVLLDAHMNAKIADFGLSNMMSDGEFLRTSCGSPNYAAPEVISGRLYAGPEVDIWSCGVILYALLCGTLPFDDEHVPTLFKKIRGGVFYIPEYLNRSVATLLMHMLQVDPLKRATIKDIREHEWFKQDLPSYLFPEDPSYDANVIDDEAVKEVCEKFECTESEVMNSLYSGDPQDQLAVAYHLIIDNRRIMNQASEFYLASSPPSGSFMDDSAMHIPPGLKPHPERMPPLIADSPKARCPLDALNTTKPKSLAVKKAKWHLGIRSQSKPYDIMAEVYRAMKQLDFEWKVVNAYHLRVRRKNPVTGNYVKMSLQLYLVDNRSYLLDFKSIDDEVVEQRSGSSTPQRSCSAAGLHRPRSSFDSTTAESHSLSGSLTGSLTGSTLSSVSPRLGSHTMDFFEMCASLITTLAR
Method: as §1, §2

ULK2 = target: T19, ULK2 (Homo sapiens, UniProt Q8IYT8); assay: NanoBRET CELLinib128; format: binding; conditions: 100% no effect, 0% complete tracer displacement, read-out: Tracer bound
T19 construct: Full-length kinase ORF (Promega, Madison, WI, USA) cloned in frame with a NanoLuc-vector; host or cells: HEK293T
Method: as §1, §2

IRAK4 = target: T20, IRAK4 (Homo sapiens, UniProt Q9NWZ3); assay: NanoBRET CELLinib128; format: binding; conditions: 1 µM; 100% no effect, 0% complete tracer displacement
T20 construct: Full-length kinase ORF (Promega, Madison, WI, USA) cloned in frame with a NanoLuc-vector was transfected into HEK293T cells; host or cells: HEK293T
T20 sequence (Q9NWZ3 whole entry): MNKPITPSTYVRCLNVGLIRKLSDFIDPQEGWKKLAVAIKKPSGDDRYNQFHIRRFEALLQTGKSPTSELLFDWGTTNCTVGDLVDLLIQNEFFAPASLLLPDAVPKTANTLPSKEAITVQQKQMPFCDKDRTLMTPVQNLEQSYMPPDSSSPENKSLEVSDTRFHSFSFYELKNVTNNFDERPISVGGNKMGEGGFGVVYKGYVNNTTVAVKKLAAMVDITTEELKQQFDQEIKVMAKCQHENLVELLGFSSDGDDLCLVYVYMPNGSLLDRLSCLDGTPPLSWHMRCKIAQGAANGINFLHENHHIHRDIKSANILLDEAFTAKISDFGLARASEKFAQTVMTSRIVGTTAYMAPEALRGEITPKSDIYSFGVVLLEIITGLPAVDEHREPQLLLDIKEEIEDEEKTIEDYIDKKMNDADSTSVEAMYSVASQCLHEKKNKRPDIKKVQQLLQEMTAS
Method: as §1, §2

DCLK3 = target: T21, DCLK3 (Homo sapiens, UniProt Q9C098); assay: NanoBRET CELLinib128; format: binding; conditions: 100% no effect, 0% complete tracer displacement, read-out: Tracer bound
T21 construct: Full-length kinase ORF (Promega, Madison, WI, USA) cloned in frame with a NanoLuc-vector was transfected into HEK293T cells; host or cells: HEK293T
Method: as §1, §2

CDK14-CCNY = target: T22, CDK14-CCNY (Homo sapiens, UniProt O94921); assay: NanoBRET CELLinib128; format: binding; conditions: 1 µM; 100% no effect, 0% complete tracer displacement
T22 construct: Full-length kinase ORF (Promega, Madison, WI, USA) cloned in frame with a NanoLuc-vector was transfected into HEK293T cells; host or cells: HEK293T
Method: as §1, §2

FGFR4 = target: T23, FGFR4 (Homo sapiens, UniProt P22455); assay: NanoBRET CELLinib128; format: binding; conditions: 100% no effect, 0% complete tracer displacement, read-out: Tracer bound
T23 construct: Full-length kinase ORF (Promega, Madison, WI, USA) cloned in frame with a NanoLuc-vector was transfected into HEK293T cells; host or cells: HEK293T
Method: as §1, §2

PLK2 = PLK2 (Homo sapiens, UniProt Q9NYY3); assay: NanoBRET CELLinib128; conditions: 1 µM; 100% no effect, 0% complete tracer displacement
[1] = target: 128 representative protein kinases; assay: NanoBRET CELLinib128 kinase selectivity panel, summary; conditions: 1 μM, share of the 128 kinases
EPHA2 = EPHA2 (Homo sapiens, UniProt P29317); assay: NanoBRET CELLinib128; conditions: read-out: Tracer bound
IRAK1 = IRAK1 (Homo sapiens, UniProt P51617); assay: NanoBRET CELLinib128; conditions: read-out: Tracer bound
HCK = target: T24, HCK (Homo sapiens, UniProt P08631); assay: NanoBRET CELLinib128; format: binding; conditions: 100% no effect, 0% complete tracer displacement, read-out: Tracer bound
T24 construct: Full-length kinase ORF (Promega, Madison, WI, USA) cloned in frame with a NanoLuc-vector was transfected into HEK293T cells; host or cells: HEK293T

FYN = target: T25, FYN (Homo sapiens, UniProt P06241); assay: NanoBRET CELLinib128; format: binding; conditions: 100% no effect, 0% complete tracer displacement, read-out: Tracer bound
T25 construct: Full-length kinase ORF (Promega, Madison, WI, USA) cloned in frame with a NanoLuc-vector was transfected into HEK293T cells; host or cells: HEK293T
T25 sequence (P06241 whole entry): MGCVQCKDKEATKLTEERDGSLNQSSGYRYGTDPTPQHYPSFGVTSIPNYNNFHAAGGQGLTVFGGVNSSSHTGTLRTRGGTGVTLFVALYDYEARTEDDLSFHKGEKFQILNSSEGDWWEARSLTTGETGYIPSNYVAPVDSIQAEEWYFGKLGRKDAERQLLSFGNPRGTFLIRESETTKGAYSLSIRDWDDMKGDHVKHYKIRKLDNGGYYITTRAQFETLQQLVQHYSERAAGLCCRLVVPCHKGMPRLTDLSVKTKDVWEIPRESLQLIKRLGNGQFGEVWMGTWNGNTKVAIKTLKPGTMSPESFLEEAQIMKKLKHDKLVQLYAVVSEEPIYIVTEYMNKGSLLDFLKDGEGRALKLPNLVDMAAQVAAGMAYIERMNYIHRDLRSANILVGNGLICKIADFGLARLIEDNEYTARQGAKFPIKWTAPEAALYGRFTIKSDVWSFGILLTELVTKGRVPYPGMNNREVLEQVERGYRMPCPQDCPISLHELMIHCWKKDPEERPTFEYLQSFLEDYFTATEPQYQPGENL

Cc1ncsc1-c1ccc([C@H](C)NC(=O)[C@@H]2C[C@@H](O)CN2C(=O)[C@@H](NC(=O)[C@H]2CC[C@H](C(=O)N3CCN(CCNC(=O)c4cc(Oc5ccc(NC(=O)Nc6cc(C(C)(C)C)on6)cc5)ccn4)CC3)CC2)C(C)(C)C)cc1 [MA191, 4-(4-(3-(5-(tert-Butyl)isoxazol-3-yl)ureido)phenoxy)-N-(2-(4-(trans-4-(((S)-1-((2S,4R)-4-hydroxy-2-(((S)-1-(4-(4-methylthiazol-5-yl)phenyl)ethyl)carbamoyl)pyrrolidin-1-yl)-3,3-dimethyl-1-oxobutan-2-yl)carbamoyl)cyclohexanecarbonyl)piperazin-1-yl)ethyl)picolinamide]
Tracer bound (MAP4K3): 91.1% | remaining activity at 1 µM (JAK3): 117% | remaining activity at 1 µM (NEK3): 100% | remaining activity at 1 µM (TEK): 85.7% | remaining activity at 1 µM (STK36): 119% | Tracer bound (JAK2): 105.7% | remaining activity at 1 µM (STK3): 105% | remaining activity at 1 µM (STK35): 95.8% | remaining activity at 1 µM (CSNK2A2): 114% | remaining activity at 1 µM (RIOK2): 115% | remaining activity at 1 µM (MAP4K1): 105% | remaining activity at 1 µM (ERN2): 116% | remaining activity at 1 µM (TNK1): 120% | remaining activity at 1 µM (SNRK): 97% | Tracer bound (SIK3): 106.3% | Tracer bound (MAP3K11): 108.2% | remaining activity at 1 µM (NEK9): 109% | remaining activity at 1 µM (PRKAA2): 119% | remaining activity at 1 µM (ULK2): 98.6% | Tracer bound (IRAK4): 114.7% | remaining activity at 1 µM (DCLK3): 102% | Tracer bound (CDK14-CCNY): 95.7% | remaining activity at 1 µM (FGFR4): 92.7% | Tracer bound (PLK2): 107.6% | kinases with no detectable binding (<10%) [1]: 93.7% | remaining activity at 1 µM (EPHA2): 104% | remaining activity at 1 µM (IRAK1): 102% | remaining activity at 1 µM (HCK): 120% | remaining activity at 1 µM (FYN): 120%
